Data as given in patent US20240067632A1, “WEE1 Degrading Compounds and Uses Thereof” (Bristol-Myers Squibb Company, priority 2022, published 2024).
pEC50: −log10 of the molar value. Read-outs that look alike come from different tables or passages of the source.

Key:
[1] = molecular target: T1, WEE1 (Homo sapiens, UniProt P30291+Q96SW2); assay: WEE1-ePL degradation assay (LentiX-WEE1-ePL-GSPT1-ND cells, InCELL Hunter luminescence, 4 h); assay type: cell-based; conditions: 293T-LentiX WEE1-ePL cells; for DC50: read-out: 293T-LentiX WEE1-ePL Degradation 4 hr (EC50)
T1 construct: C-terminal ePL-tagged (DiscoverX, Fremont, CA) full-length WEE1 expression construct; expressed in transfected cells; host or cells: LentiX-HEK293T (Invitrogen), lentiviral transduction; co-expressing GSPT1-GN (G576N, lacking the first 158 amino acids)
Summary of the method: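 Degradation EC50 was fitted by a four-parameter logistic model, with the upper limit taken from DMSO wells. Luminescence was read with InCELL Hunter reagent after 30 min at room temperature, following a 4 h, 37° C exposure of 2500 cells/well. Cells were LentiX-HEK293T carrying ePL-tagged full-length WEE1, dosed in 10 points (3-fold) from 1 or 10 uM.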

[2] = tested on: MKN45 cells; assay: MKN45 cell proliferation assay (Cell-Titer-Glo, 120 h); assay type: cell-based; conditions: for pEC50: Homo sapiens, MKN-45, 120 h, Cell-Titer-Glo, read-out: MKN45 Cell Prolif. 120 hr (EC50); for MKN45 Cell Prolif. 120 hr (Ymin-Obs): minimal percent of DMSO control observed in the concentrations tested
Procedure: MKN45 cells were obtained from Celgene internal cell banks and cultured in RPMI complete media (RPMI-1640, 1× Penicillin/Streptomycin, 1× glutamine, 1× Sodium Pyruvate, Non-essential Amino Acids, 10% Fetal Bovine serum, all component from Thermo-Fisher). Compounds were dispensed into 384-well plates using an HP DE300 compound printer in triplicate with 8 compounds on each plate. For each compound, a 10-point dose response was printed at half-log dilutions starting at either 1 uM or 10 uM. The DMSO concentration was kept constant for a final assay concentration of 0.1% per well assuming 50 ul final media volume. Compound plates were sealed and frozen at −20 C until use.
For each assay batch, compound plates were thawed and allowed to reach room temperature, and cells were seeded at 400 cells per well in 50 ul complete RPMI media. After 120 hours of incubation at 37 C and 5% CO2, cells were lysed by addition of 25 μL of Cell-Titer-Glo Reagent (Promega Corporation, Madison, WI), as per manufacturer's instructions, protected from light, shaken for 45 minutes, and total luminescence read by a Perkin Elmer Envision plate reader. Total luminescence signal is linearly correlated with cell number remaining in the well.
Luminescence data was processed per plate by subtracting reagent-only “blank” well luminescence from all measured values and calculating a percent of DMSO control value for each treatment well. Then, to determine the half-maximal effective concentration (EC50) values for cell growth inhibition, a four parameter logistic model was fit to the data for each DMSO-normalized compound: Sigmoidal Dose-Response Model: (FIT=(A+((B−A)/1+((C/x)^D)))) where C is the inflection point (EC50), D is the Hill slope, and A and B are the low and high limits of the fit respectively. The lower limit of the fit (value A) is referred to as Ymin-calculated. The minimal percent of DMSO control that is observed in the concentrations tested for each compound is labeled as “Ymin-obs”, and was recorded and reported in the tables. Sigmoidal fit curves were processed and evaluated using Activity Base (IDBS, Alameda, CA).

[3] = lower limit of the fit (0 = luciferase inhibitor, Ymax = DMSO control)
[4] = lower limit of the fit (Ymin=0 luciferase inhibitor, Ymax DMSO control)

| Compound | 293T-LentiX WEE1-ePL Degradation 4 hr (Ymin) [1, 3] | DC50 [1] | pEC50 ([2]; growth inhibition) | MKN45 Cell Prolif. 120 hr (Ymin-Obs) [2] | 293T-LentiX WEE1-ePL Degradation 4 hr (Ymin) [1, 4] | pEC50 [2] |
| --- | --- | --- | --- | --- | --- | --- |
| Cc1cccc2cnc(CN3CC[C@H](Oc4ccc5c(c4)CN(C4CCC(=O)NC4=O)C5=O)C3)cc12 (stereo partly drawn) [3-(5-{[(3S)-1-[(5-methylisoquinolin-3-yl)methyl]pyrrolidin-3-yl]oxy}-1-oxo-2,3-dihydro-1H-isoindol-2-yl)piperidine-2,6-dione] | 31.91 | 4.62 nM | 7.07 | 19.01 | – | – |
| O=C1CCC(N2Cc3cc(O[C@H]4CCN(Cc5ccc6nc(N7CCC78COC8)ccc6c5)C4)ccc3C2=O)C(=O)N1 (stereo partly drawn) [3-(5-{[(3S)-1-[(2-{6-oxa-1-azaspiro[3.3]heptan-1-yl}quinolin-6-yl)methyl]pyrrolidin-3-yl]oxy}-1-oxo-2,3-dihydro-1H-isoindol-2-yl)piperidine-2,6-dione] | 35 | 6.17 nM | 8.42 | 8.91 | – | – |
| O=C1CCC(N2Cc3cc(O[C@H]4CCN(Cc5ccc6ncncc6c5)C4)ccc3C2=O)C(=O)N1 (stereo partly drawn) [3-(1-oxo-5-{[(3S)-1-[(quinazolin-6-yl)methyl]pyrrolidin-3-yl]oxy}-2,3-dihydro-1H-isoindol-2-yl)piperidine-2,6-dione] | 36.57 | 57 nM | 6.55 | 20.44 | – | – |
| O=C1CCC(N2Cc3cc(O[C@H]4CCN(Cc5ccc6nc([C@H]7CCCOC7)ccc6c5)C4)ccc3C2=O)C(=O)N1 (stereo partly drawn) [3-(5-{[(3S)-1-({2-[(3R)-oxan-3-yl]quinolin-6-yl}methyl)pyrrolidin-3-yl]oxy}-1-oxo-2,3-dihydro-1H-isoindol-2-yl)piperidine-2,6-dione] | 32.33 | 3.33 nM | 8.28 | 12.5 | – | – |
| O=C1CCC(N2Cc3cc(O[C@H]4CCN(Cc5cc6ccc([C@H]7CCOC7)cc6cn5)C4)ccc3C2=O)C(=O)N1 (stereo partly drawn) [3-(1-oxo-5-{[(3S)-1-({7-[(3R)-oxolan-3-yl]isoquinolin-3-yl}methyl)pyrrolidin-3-yl]oxy}-2,3-dihydro-1H-isoindol-2-yl)piperidine-2,6-dione] | 28 | 1.41 nM | 8.53 | 8.5 | – | – |
| COC[C@@H]1CCC[C@H](c2ccc3cc(CN4CC[C@H](Oc5ccc6c(c5)CN(C5CCC(=O)NC5=O)C6=O)C4)ccc3n2)C1 (stereo partly drawn) [3-(5-{[(3S)-1-({2-[(1S,3R)-3-(methoxymethyl)cyclohexyl]quinolin-6-yl}methyl)pyrrolidin-3-yl]oxy}-1-oxo-2,3-dihydro-1H-isoindol-2-yl)piperidine-2,6-dione] | – | 1.63 nM | – | 10.23 | 27.12 | 8.76 |
| O=C1CC[C@H](N2Cc3cc(O[C@H]4CCN(Cc5cc(N6CCC6)c6nc(C7CCOCC7)ccc6c5)C4)ccc3C2=O)C(=O)N1 [(3S)-3-(5-{[(3S)-1-{[8-(azetidin-1-yl)-2-(oxan-4-yl)quinolin-6-yl]methyl}pyrrolidin-3-yl]oxy}-1-oxo-2,3-dihydro-1H-isoindol-2-yl)piperidine-2,6-dione] | – | 26 nM | – | 3.155 | 33.36 | 7.97 |
| O=C1CCC(N2Cc3cc(O[C@H]4CCN(Cc5ccc6nc(N7CCCC7)ccc6c5)C4)ccc3C2=O)C(=O)N1 (stereo partly drawn) [3-(1-oxo-5-{[(3S)-1-{[2-(pyrrolidin-1-yl)quinolin-6-yl]methyl}pyrrolidin-3-yl]oxy}-2,3-dihydro-1H-isoindol-2-yl)piperidine-2,6-dione] | 34 | 3.97 nM | 8.22 | 11.865 | – | – |
| O=C1CCC(N2Cc3cc(O[C@H]4CCN(Cc5ccc6nc(N7CCOCC7)ccc6c5)C4)ccc3C2=O)C(=O)N1 (stereo partly drawn) [3-(5-{[(3S)-1-{[2-(morpholin-4-yl)quinolin-6-yl]methyl}pyrrolidin-3-yl]oxy}-1-oxo-2,3-dihydro-1H-isoindol-2-yl)piperidine-2,6-dione] | 35 | 2.69 nM | 7.92 | 12.168 | – | – |
| O=C1CCC(N2Cc3cc(O[C@H]4CCN(Cc5ccc6cnccc6c5)C4)ccc3C2=O)C(=O)N1 (stereo partly drawn) [3-(5-{[(3S)-1-[(isoquinolin-6-yl)methyl]pyrrolidin-3-yl]oxy}-1-oxo-2,3-dihydro-1H-isoindol-2-yl)piperidine-2,6-dione] | 25.71 | 17 nM | 7.28 | 15.77 | – | – |
| Cc1ncc2cc(CN3CC[C@H](Oc4ccc5c(c4)CN(C4CCC(=O)NC4=O)C5=O)C3)ccc2n1 (stereo partly drawn) [3-(5-{[(3S)-1-[(2-methylquinazolin-6-yl)methyl]pyrrolidin-3-yl]oxy}-1-oxo-2,3-dihydro-1H-isoindol-2-yl)piperidine-2,6-dione] | 34.5 | 29.6 nM | 7.57 | 7.995 | – | – |
| O=C1CCC(N2Cc3cc(O[C@H]4CCN(Cc5ccc6nccnc6c5)C4)ccc3C2=O)C(=O)N1 (stereo partly drawn) [3-(1-oxo-5-{[(3S)-1-[(quinoxalin-6-yl)methyl]pyrrolidin-3-yl]oxy}-2,3-dihydro-1H-isoindol-2-yl)piperidine-2,6-dione] | 43 | 14.2 nM | 6.06 | 70.03 | – | – |
| O=C1CCC(N2Cc3cc(O[C@@H]4CN(Cc5ccc6nc(C7CCOCC7)ccc6c5)C[C@@H]4F)ccc3C2=O)C(=O)N1 (stereo partly drawn) [3-(5-{[(3R,4S)-4-fluoro-1-{[2-(oxan-4-yl)quinolin-6-yl]methyl}pyrrolidin-3-yl]oxy}-1-oxo-2,3-dihydro-1H-isoindol-2-yl)piperidine-2,6-dione] | 36 | 13.2 nM | 8.15 | 8.923 | – | – |
| O=C1CCC(N2Cc3cc(O[C@H]4CCN(Cc5ccc6nc(N7[C@@H]8COC[C@H]7C8)ccc6c5)C4)ccc3C2=O)C(=O)N1 (stereo partly drawn) [3-(5-{[(3S)-1-({2-[(1R,5S)-3-oxa-6-azabicyclo[3.1.1]heptan-6-yl]quinolin-6-yl}methyl)pyrrolidin-3-yl]oxy}-1-oxo-2,3-dihydro-1H-isoindol-2-yl)piperidine-2,6-dione] | 37 | 8.62 nM | 7.95 | 9.645 | – | – |
| O=C1CCC(N2Cc3cc(O[C@H]4CCN(Cc5cc6ccccc6cn5)C4)ccc3C2=O)C(=O)N1 (stereo partly drawn) [3-(5-{[(3S)-1-[(isoquinolin-3-yl)methyl]pyrrolidin-3-yl]oxy}-1-oxo-2,3-dihydro-1H-isoindol-2-yl)piperidine-2,6-dione] | 30.345 | 4.05 nM | 7.36 | 13.47 | – | – |
| N#Cc1ccc2cc(CN3CC[C@H](Oc4ccc5c(c4)CN(C4CCC(=O)NC4=O)C5=O)C3)ncc2c1 (stereo partly drawn) [3-{[(3S)-3-{[2-(2,6-dioxopiperidin-3-yl)-1-oxo-2,3-dihydro-1H-isoindol-5-yl]oxy}pyrrolidin-1-yl]methyl}isoquinoline-7-carbonitrile] | 29 | 1.87 nM | 8.00 | 8.661 | – | – |
